This is an account of results in PubChem BioAssay AID624167 (Sanford-Burnham Center for Chemical Genomics, 2012).

Holding throughout (experiment): Peg3 promoter luciferase inhibitors, potency, dose response, cell-based, HeLa, CREF/GAPDH counter-screen panel (AID 624167)
Test [1] concerns the target PEG-3 (UniProt Q6IN02). The note with it: HeLa PEG-Prom luciferase reporter, overnight, CREF/GAPDH counter-screens, mean of runs.
For test [2], the system named is PEG-3. The note with it: HeLa PEG-Prom luciferase reporter, overnight, CREF/GAPDH counter-screens.
Test [3] has as its system Rat fibroblasts (CREF). The following applies: CREF/GAPDH counter-screens.
Setting [4] is: run 1, dose range 1, individual replicate IC50 per panel.
[5] abbreviates: run 2, dose range 1, individual replicate IC50 per panel.

The source made the active and inactive calls.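 How the source made its calls: active means mean IC50 for reducing PEG3 promoter reporter signal at or below a set limit, with IC50 above the limit in both counter screens; inactive means the rest, including counter screen hits.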 A value given as a limit tells only on which side of the number the result lay.

Chain of PEG-3 (UniProt Q6IN02) (Q6IN02 whole entry, looked up): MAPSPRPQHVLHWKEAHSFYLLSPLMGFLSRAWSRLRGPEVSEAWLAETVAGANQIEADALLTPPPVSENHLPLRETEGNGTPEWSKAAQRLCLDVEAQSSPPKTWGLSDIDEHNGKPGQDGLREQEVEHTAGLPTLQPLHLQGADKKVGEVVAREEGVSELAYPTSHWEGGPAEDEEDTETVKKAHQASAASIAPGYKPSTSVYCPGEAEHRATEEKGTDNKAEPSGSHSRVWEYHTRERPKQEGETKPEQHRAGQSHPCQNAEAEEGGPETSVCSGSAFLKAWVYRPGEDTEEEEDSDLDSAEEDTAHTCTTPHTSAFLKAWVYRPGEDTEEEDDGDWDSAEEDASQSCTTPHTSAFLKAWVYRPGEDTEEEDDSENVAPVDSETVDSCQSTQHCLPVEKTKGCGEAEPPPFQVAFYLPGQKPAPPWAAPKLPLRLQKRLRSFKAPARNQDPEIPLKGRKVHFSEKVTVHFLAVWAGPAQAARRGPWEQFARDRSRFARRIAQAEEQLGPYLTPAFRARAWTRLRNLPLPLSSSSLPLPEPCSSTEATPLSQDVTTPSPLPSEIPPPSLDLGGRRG

As for `Cc1ccc2nc(C)cc(Nc3ccc([N+](=O)[O-])cc3)c2c1`, the IC50 is 8 µM in test [1]; 10.6 µM in test [2] (setting [4]); 5.38 µM in test [2] (setting [5]); 8.48 µM in test [3] (mean of runs); 8.42 µM in test [3] (setting [4]); 8.54 µM in test [3] (setting [5]).

Turning to `COC1=CC(=O)c2c(ccc3ncnc(N)c23)C1=O`, the IC50 is 1.01 µM in test [1]; 1.48 µM in test [2] (setting [4]); 0.547 µM in test [2] (setting [5]); 0.935 µM in test [3] (mean of runs); 0.875 µM in test [3] (setting [4]); 0.995 µM in test [3] (setting [5]).

For `COc1ccc(CCN2C(=O)C=CC2=O)cc1OC`, the IC50 in test [1] is 8.69 µM; in test [2] (setting [4]), 10 µM; in test [2] (setting [5]), 7.39 µM; in test [3] (mean of runs), 7.92 µM; in test [3] (setting [4]), 6.39 µM; in test [3] (setting [5]), 9.45 µM.

For the molecule `C(=NNc1ccc2ccccc2n1)c1ccccn1`, the IC50 is 1.66 µM in test [1]; 1.21 µM in test [2] (setting [4]); 2.11 µM in test [2] (setting [5]); 1.44 µM in test [3] (mean of runs); 1.33 µM in test [3] (setting [4]); 1.55 µM in test [3] (setting [5]).

`c1ccc(-c2noc(-c3ccc4c(c3)OCO4)n2)nc1`: the IC50 is 0.818 µM in test [1]; 0.622 µM in test [2] (setting [4]); 1.01 µM in test [2] (setting [5]); 0.694 µM in test [3] (mean of runs); 0.309 µM in test [3] (setting [4]); 1.08 µM in test [3] (setting [5]).

For `O=C(O)c1cccc(COc2ccccc2Cl)c1`, the IC50 in test [1] is 1.83 µM; in test [2] (setting [4]) it was 0.679 µM; in test [2] (setting [5]), 2.97 µM; in test [3] (mean of runs) it was 20.2 µM; in test [3] (setting [4]) it was 38.8 µM; in test [3] (setting [5]) it was 1.55 µM.

Consider `CC(C)CC(=NNC(=O)c1ccncc1)c1cc(Cl)ccc1O`, for which the IC50 in test [1] was 3.41 µM; in test [2] (setting [4]) it was 3.35 µM; in test [2] (setting [5]) it was 3.46 µM; in test [3] (mean of runs) it was 10.3 µM; in test [3] (setting [4]), 8.21 µM; in test [3] (setting [5]), 12.3 µM.

Regarding `CCOc1ccc2nc(NC(=O)c3ccccn3)sc2c1`, the IC50 entry in test [1] is “inactive”. For the same molecule, the IC50 in test [2] (setting [4]) is 4.39 µM; in test [2] (setting [5]) it was > 100 µM; in test [3] (mean of runs), 3.5 µM; in test [3] (setting [4]) it was 2.81 µM; in test [3] (setting [5]), 4.18 µM.

On to `CCOC(=O)c1c(-n2c(C)cc(C=C3C(=O)NC(=S)NC3=O)c2C)sc2c1CCCC2`, for which the IC50 in test [1] was 5.69 µM; in test [2] (setting [4]) it was 5.9 µM; in test [2] (setting [5]), 5.47 µM; in test [3] (mean of runs) it was 11.3 µM; in test [3] (setting [4]) it was 20.3 µM; in test [3] (setting [5]) it was 2.35 µM.

As to `CCOc1ccc(C(=O)O/N=C(\N)c2ccccn2)cc1`, the IC50 in test [1] is 3.41 µM; in test [2] (setting [4]), 5.04 µM; in test [2] (setting [5]), 1.77 µM; in test [3] (mean of runs), 2.25 µM; in test [3] (setting [4]), 2.35 µM; in test [3] (setting [5]) it was 2.15 µM.

As to `CC1CCCN(c2ncnc3c2cnn3-c2ccc(Cl)cc2)C1` (configuration not stated), the IC50 in test [1] was 7.2 µM; in test [2] (setting [4]), 6 µM; in test [2] (setting [5]), 8.4 µM; in test [3] (mean of runs), 1.98 µM; in test [3] (setting [4]), 1.79 µM; in test [3] (setting [5]), 2.17 µM.

Take `N=c1n(CCN2CCCCC2)c2ccccc2n1CC(O)c1ccc(Cl)c(Cl)c1` (configuration not stated): the IC50 was 9.46 µM in test [1]; 10.1 µM in test [2] (setting [4]); 8.8 µM in test [2] (setting [5]); 14.2 µM in test [3] (mean of runs); 13.6 µM in test [3] (setting [4]); 14.8 µM in test [3] (setting [5]).

`Cc1csc(NC(=O)c2cn3ccccc3n2)n1`: the IC50 in test [1] is 4.15 µM; in test [2] (setting [4]), 2.68 µM; in test [2] (setting [5]), 5.62 µM; in test [3] (mean of runs), 1.09 µM; in test [3] (setting [4]), 1.11 µM; in test [3] (setting [5]), 1.07 µM.

On to `Cc1c([N+](=O)[O-])cc(N2C(=O)C=CC2=O)cc1[N+](=O)[O-]`, for which the IC50 in test [1] was 8.22 µM; in test [2] (setting [4]), 9.19 µM; in test [2] (setting [5]), 7.25 µM; in test [3] (mean of runs), 17.2 µM; in test [3] (setting [4]), 16.8 µM; in test [3] (setting [5]), 17.6 µM.

For `O=C(Nc1nc2cc3c(cc2s1)OCO3)C1=COCCO1`, the IC50 in test [1] is 1.97 µM; in test [2] (setting [4]), 1.68 µM; in test [2] (setting [5]), 2.25 µM; in test [3] (mean of runs) it was 2.29 µM; in test [3] (setting [4]) it was 1.92 µM; in test [3] (setting [5]), 2.66 µM.

Take `c1ccc(-c2nc(-c3ccccn3)no2)cc1`: in test [1], the IC50 entry is “inactive”. The half-inhibitory concentration (IC50) in test [2] (setting [4]) is 6.25 µM; in test [2] (setting [5]) it was > 100 µM; in test [3] (mean of runs), 2.98 µM; in test [3] (setting [4]), 3.18 µM; in test [3] (setting [5]), 2.79 µM.

Turning to `Cc1ccc(-n2[nH]c(=O)c(-c3ccccn3)c2C)cc1`, the IC50 is 3 µM in test [1]; 2.62 µM in test [2] (setting [4]); 3.38 µM in test [2] (setting [5]); 11.2 µM in test [3] (mean of runs); 7.32 µM in test [3] (setting [4]); 15 µM in test [3] (setting [5]).
